Active and inactive are the calls of the source.
Experiments:
Nonstructural protein 1 = Nonstructural protein 1 (Influenza A virus, UniProt Q194T2); format: functional, Influenza A virus (A/California/07/2009(H1N1))
[1] = target: T1, Calpain-2 catalytic subunit (Sus scrofa, UniProt P43367); test: pig calpain II inhibitor potency, dose response, biochemical, fluorogenic peptide substrate (AID 1420); format: functional
T1 sequence (P43367 whole entry): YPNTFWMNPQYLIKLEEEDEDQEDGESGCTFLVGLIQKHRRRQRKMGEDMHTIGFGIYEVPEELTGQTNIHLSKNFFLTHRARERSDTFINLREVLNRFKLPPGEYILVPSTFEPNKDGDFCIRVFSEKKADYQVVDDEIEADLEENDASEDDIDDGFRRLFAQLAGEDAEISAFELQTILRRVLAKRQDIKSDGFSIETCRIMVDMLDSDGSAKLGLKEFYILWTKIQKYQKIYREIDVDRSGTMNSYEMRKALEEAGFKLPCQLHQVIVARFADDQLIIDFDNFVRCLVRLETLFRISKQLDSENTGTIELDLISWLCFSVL

[2] = target: T2, Ubiquitin-conjugating enzyme E2 N (Homo sapiens, UniProt P61088); format: functional;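 further: Dose-response confirmation in a TR-FRET assay detecting UBC13-driven polyubiquitin chain formation, inhibition measured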
T2 sequence (P61088 whole entry): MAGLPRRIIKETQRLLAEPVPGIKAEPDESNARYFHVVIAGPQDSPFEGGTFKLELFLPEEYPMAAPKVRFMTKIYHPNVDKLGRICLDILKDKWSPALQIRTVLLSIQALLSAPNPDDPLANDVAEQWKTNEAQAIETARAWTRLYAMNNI

[3] = A cytotoxicity screen of small molecule inhibitors of the PhoP region in Salmonella typhi identified in the primary screen. [Related pubchem assays: 1850, 1864, 1985 ]; format: functional
[4] = Luminescence Cell-Based Dose Confirmation HTS to Identify Inhibitors of Platelet Dense Granule Release. [Related pubchem assays: 1663 (Primary HTS), 1678 (Summary of Project)]; format: functional
[5] = target: Luciferin 4-monooxygenase (Photinus pyralis, UniProt P08659); test: firefly luciferase enzyme inhibitors, dose response, biochemical, luminescence (AID 1891)
cells = format: functional
H4 = test: Luminescence Cell-Based Dose Response HTS to Identify Activators of 5'UTR Stem-Loop Driven Prion Protein mRNA Translation in H4 Neuroglioblastoma Cells. [Related pubchem assays: 1829 (Project Summary), 1814 (Primary HTS)]; format: functional; details: Homo sapiens
[6] = Luminescence Cell-Based Dose Response HTS to Identify Activators of Luciferase Translation or Activity in H4 […] Cells. [Related pubchem assays: 1829 (Project Summary), 1814 (Primary HTS)]; format: functional
[7] = target: Voltage-dependent T-type calcium channel subunit alpha-1H (Homo sapiens, UniProt O95180); format: functional;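 further: channel activity triggered by adding a high calcium stimulation buffer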
[8] = target: Glyceraldehyde-3-phosphate dehydrogenase (Homo sapiens, UniProt P04406)
[9] = target: T3, Zinc finger protein mex-5 (Caenorhabditis elegans, UniProt Q9XUB2); test: MEX-5/TCR-2 RNA interaction inhibitors, dose response, biochemical, C. elegans, fluorescence polarization (AID 1960)
T3 sequence (Q9XUB2 whole entry): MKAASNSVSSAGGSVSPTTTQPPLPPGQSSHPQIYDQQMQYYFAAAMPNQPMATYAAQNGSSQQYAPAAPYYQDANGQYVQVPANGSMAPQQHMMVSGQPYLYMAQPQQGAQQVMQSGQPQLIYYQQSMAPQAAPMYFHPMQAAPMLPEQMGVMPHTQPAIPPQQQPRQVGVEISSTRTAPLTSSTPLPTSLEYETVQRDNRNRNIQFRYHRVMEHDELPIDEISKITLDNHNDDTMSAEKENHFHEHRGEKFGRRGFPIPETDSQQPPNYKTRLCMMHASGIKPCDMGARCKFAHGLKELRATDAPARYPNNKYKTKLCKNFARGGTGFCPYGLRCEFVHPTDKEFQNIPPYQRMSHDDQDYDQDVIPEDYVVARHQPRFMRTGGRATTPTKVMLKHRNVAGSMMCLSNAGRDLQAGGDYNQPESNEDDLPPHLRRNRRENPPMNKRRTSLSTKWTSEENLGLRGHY

[10] = target: T4, RNA-binding protein pos-1 (Caenorhabditis elegans, UniProt G5EF15); test: inhibitors of POS-1/mex-3 RNA binding, dose response, biochemical, fluorescence polarization (AID 1964);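 further: purified POS-1 fused to maltose binding protein made in E. coli; potency of compounds blocking POS-1 binding to fluorescent RNA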
T4 sequence (G5EF15 whole entry): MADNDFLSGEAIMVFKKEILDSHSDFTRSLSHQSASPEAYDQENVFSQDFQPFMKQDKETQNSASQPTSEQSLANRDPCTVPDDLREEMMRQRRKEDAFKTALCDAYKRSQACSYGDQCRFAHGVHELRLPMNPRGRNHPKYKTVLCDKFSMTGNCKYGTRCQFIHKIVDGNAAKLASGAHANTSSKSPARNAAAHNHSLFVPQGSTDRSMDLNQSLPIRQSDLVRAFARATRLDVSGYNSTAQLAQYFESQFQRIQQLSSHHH

[11] = target: T5, Heat shock factor protein 1 (Mus musculus, UniProt P38532); test: inhibition of MG132-induced HSE-luciferase signal, confirmation, cell-based, NIH3T3, luminescence, dose retest (AID 2382); format: functional;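 further: NIH3T3 fibroblasts with HSF1-driven luciferase reporter stressed by proteasome inhibitor MG132; luminescence from HSF1-driven luciferase expression after 8 hours of MG132 stress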
T5 sequence (P38532 whole entry): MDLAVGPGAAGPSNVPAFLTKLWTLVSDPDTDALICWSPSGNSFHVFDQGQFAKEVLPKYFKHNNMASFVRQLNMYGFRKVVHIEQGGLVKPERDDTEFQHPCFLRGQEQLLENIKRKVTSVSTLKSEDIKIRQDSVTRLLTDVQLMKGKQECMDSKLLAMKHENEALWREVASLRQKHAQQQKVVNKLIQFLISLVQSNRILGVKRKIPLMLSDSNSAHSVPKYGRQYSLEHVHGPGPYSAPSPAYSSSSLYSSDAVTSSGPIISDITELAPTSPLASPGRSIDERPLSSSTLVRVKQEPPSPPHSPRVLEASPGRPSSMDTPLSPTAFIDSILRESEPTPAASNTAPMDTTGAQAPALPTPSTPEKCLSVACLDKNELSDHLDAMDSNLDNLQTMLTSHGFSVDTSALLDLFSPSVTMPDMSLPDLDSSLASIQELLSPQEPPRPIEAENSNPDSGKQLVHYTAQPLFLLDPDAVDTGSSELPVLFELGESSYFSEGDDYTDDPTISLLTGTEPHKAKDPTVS

[12] = microbe, parasite or virus in culture; format: functional; details: Mycobacterium tuberculosis
[13] = inhibitors of intracellular T. cruzi replication, confirmation, NIH3T3 host cells, beta-gal luminescence (AID 2044); format: functional, cell-based;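 further: intracellular parasites grown in NIH/3T3 mouse fibroblasts as host cells; luminescent beta-galactosidase reporter signal from transgenic T. cruzi replicating inside host cells; inhibitors lower the luminescence signal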
[14] = cytotoxicity toward NIH3T3 fibroblasts, dose response, counter-screen, cell-based, ATP luminescence, mouse fibroblasts (AID 2010); format: functional;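 further: cells exposed to compound for about 90 hours before reading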
[15] = target: Induced myeloid leukemia cell differentiation protein Mcl-1 (Homo sapiens, UniProt Q07820); format: functional
[16] = target: T6, Short transient receptor potential channel 4 (Mus musculus, UniProt Q9QUQ5); test: mouse TRPC4 channel activators, dose response, cell-based, HEK293 TRPC4/mu-opioid, Fluo-4 calcium (AID 434937); format: functional
T6 sequence (Q9QUQ5 whole entry): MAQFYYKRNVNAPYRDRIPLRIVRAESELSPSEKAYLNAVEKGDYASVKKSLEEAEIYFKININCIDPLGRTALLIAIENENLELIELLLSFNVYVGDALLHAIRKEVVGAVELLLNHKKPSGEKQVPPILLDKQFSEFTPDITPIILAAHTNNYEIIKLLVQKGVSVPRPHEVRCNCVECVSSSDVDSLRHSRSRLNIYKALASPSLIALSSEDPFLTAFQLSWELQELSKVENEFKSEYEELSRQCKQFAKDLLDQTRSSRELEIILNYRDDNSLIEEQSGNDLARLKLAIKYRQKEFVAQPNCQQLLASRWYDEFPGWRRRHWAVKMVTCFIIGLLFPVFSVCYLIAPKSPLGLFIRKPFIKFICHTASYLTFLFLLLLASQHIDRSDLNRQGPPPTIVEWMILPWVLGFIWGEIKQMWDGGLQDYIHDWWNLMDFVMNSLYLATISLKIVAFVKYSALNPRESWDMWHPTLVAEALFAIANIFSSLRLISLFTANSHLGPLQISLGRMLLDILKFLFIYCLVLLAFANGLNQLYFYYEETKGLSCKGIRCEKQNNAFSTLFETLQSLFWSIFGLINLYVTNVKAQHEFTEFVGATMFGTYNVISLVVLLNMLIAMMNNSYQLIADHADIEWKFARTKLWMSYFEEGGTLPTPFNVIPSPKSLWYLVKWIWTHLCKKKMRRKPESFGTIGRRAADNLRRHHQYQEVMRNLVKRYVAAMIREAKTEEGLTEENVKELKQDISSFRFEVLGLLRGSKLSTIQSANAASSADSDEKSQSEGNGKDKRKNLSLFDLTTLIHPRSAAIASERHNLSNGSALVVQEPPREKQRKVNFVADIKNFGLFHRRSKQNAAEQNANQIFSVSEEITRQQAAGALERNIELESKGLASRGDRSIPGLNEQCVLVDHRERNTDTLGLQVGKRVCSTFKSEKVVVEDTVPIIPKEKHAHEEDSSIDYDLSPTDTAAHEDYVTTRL

[17] = target: T5, Heat shock factor protein 1; test: HSF1 potentiators in luciferase reporter cells, confirmation, cell-based, NIH3T3, luminescence, dose retest (AID 435004); format: functional;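 further: stress induced by proteasome inhibitor MG132 added 30 min after compound; luciferase reporter driven by HSF1 response element in NIH3T3 cells; actives raise luminescence as potentiators of the MG132 stress response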

Chain of Voltage-dependent T-type calcium channel subunit alpha-1H (O95180 whole entry): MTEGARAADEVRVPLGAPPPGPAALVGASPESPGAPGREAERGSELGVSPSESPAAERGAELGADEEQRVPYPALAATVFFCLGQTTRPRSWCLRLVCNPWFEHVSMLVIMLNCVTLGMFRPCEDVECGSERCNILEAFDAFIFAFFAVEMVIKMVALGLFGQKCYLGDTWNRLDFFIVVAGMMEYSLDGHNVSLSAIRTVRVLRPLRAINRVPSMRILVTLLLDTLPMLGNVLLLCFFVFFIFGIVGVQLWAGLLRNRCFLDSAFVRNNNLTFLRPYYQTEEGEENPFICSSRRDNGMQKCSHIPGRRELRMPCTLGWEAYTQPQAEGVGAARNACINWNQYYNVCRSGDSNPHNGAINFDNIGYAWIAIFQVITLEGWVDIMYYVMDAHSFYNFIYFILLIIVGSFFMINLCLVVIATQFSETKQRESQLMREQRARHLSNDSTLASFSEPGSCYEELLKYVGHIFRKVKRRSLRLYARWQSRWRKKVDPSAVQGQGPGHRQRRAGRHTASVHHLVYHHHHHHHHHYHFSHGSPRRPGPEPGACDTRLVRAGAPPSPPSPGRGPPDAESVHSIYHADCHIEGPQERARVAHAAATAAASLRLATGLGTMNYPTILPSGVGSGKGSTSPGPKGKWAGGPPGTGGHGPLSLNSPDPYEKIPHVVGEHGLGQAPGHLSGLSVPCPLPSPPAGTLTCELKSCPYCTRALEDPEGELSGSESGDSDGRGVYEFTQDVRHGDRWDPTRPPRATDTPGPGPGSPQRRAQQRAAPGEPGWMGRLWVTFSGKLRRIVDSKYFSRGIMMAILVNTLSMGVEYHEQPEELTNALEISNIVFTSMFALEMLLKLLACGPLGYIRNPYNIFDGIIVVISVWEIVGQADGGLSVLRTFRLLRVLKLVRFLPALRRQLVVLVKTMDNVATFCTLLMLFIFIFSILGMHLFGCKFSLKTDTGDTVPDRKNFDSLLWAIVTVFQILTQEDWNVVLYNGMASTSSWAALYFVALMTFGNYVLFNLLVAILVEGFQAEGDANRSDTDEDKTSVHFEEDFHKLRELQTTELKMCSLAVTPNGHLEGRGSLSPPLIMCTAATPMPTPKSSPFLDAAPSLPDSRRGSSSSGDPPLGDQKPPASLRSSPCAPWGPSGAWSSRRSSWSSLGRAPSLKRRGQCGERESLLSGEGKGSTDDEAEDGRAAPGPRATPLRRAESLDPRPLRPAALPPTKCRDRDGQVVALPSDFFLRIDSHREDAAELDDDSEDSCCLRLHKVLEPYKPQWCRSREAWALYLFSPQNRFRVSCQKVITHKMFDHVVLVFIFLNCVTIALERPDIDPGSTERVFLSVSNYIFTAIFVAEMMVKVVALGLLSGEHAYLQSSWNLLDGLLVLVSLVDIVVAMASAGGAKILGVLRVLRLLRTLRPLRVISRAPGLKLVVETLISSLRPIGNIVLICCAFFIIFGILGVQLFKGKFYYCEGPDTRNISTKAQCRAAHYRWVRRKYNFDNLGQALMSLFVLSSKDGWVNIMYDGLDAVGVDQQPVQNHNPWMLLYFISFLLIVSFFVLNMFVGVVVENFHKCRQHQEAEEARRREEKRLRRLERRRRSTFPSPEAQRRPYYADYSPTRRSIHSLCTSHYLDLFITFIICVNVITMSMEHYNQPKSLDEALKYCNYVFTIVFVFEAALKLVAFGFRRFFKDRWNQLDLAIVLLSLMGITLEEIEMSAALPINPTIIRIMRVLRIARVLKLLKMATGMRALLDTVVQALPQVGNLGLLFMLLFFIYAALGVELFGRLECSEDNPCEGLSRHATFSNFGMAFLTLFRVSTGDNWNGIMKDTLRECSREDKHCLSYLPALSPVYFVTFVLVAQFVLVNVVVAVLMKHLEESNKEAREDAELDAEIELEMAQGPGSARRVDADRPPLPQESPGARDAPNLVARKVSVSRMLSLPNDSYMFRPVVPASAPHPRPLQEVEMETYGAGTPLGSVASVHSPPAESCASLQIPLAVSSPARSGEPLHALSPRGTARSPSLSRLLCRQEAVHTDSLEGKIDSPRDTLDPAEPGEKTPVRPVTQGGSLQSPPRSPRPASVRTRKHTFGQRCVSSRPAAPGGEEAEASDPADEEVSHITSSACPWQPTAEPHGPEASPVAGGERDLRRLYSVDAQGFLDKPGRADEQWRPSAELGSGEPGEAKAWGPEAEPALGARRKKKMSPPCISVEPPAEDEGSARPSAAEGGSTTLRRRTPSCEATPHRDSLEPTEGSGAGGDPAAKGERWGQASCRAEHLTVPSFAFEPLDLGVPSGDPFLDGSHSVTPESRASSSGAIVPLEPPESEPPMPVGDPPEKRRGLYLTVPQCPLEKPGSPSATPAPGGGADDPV
Chain of Nonstructural protein 1 (Q194T2 whole entry): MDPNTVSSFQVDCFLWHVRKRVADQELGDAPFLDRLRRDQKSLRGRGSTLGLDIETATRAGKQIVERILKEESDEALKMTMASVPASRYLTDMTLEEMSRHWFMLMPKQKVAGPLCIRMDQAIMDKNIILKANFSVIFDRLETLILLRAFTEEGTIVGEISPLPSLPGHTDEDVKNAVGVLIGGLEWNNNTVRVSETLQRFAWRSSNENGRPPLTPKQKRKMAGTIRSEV
Chain of Glyceraldehyde-3-phosphate dehydrogenase (P04406 whole entry): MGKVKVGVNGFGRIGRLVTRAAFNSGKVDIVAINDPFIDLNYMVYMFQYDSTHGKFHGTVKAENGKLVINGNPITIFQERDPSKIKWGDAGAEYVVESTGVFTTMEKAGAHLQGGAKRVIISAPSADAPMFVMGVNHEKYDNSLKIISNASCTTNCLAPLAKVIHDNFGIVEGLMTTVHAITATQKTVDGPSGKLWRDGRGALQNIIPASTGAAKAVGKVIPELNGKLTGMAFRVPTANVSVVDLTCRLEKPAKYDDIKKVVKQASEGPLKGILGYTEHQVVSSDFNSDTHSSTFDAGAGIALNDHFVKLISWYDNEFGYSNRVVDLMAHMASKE
Chain of Luciferin 4-monooxygenase (P08659 whole entry): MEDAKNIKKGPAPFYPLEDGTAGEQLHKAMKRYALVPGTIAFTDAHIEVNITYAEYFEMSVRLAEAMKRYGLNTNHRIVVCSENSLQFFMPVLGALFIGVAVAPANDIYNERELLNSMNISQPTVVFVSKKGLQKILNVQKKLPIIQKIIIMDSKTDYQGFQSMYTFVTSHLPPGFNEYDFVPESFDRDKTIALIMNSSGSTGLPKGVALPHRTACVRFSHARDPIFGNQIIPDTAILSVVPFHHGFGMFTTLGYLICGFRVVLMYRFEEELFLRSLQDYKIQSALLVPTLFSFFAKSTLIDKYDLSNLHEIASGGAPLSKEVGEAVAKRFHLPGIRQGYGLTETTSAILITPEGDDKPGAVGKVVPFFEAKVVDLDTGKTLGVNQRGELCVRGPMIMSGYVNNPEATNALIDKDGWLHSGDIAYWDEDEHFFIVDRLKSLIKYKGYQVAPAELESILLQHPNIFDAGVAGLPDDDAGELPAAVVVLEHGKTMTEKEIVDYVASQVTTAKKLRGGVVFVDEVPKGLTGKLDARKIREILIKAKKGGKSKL
Chain of Induced myeloid leukemia cell differentiation protein Mcl-1 (Q07820 whole entry): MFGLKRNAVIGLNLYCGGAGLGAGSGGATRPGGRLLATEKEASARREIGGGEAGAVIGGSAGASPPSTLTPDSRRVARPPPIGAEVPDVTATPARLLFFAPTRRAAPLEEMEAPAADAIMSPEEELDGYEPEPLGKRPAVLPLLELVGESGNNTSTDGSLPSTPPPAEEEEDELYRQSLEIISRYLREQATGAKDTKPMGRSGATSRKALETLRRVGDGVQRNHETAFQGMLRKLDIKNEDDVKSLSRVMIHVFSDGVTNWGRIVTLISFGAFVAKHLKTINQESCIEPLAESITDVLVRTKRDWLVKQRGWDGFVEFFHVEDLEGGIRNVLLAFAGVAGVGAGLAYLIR

## Cc1nccn1CC(=O)N/N=C/c1ccccc1O
Nonstructural protein 1
  IC50: 18.4 µM (active)

## CCOC(=O)C1(CC2CCCCO2)CCN(C(=O)Nc2ccc(C)c(C)c2)CC1 (centres undefined)
[1]
  IC50: > 50 µM (not active)

## Cn1c(=O)cc(SCC(=O)N2CCN(C3CCCCC3)CC2)c2ccccc21
[2]
  IC50: > 20 µM (inactive)
[3]
  EC50: > 50 µM (active)

## COc1cc(/C=C2/C(=O)NN(c3cccc(F)c3)C2=O)ccc1OC(=O)c1ccco1
[4]
  EC50: > 112 µM (not active)
[5]
  EC50: > 112 µM (not active)
cells
  IC50: 16.7 µM (active)

## O=C(Nc1cnc2ccccc2c1)C1COc2ccccc2O1 (centres undefined)
H4
  EC50: 37.6 µM (active)
[6]
  EC50: < 100 nM (active)
[7]
  EC50: 2.93 µM (active)

## Cc1onc(-c2ccccc2Cl)c1C(=O)Nc1ccc(F)c(F)c1
[4]
  EC50: > 112 µM (not active)
[5]
  EC50: > 112 µM (not active)
[7]
  EC50: 5.58 µM (active)

## COc1cccc(N2CCN(C3=C(Cl)C(=O)N(c4cccc(C)c4)C3=O)CC2)c1
[8]
  IC50: > 50 µM (inconclusive)

## Cc1c(N2C(=O)/C(=C/c3cccc4ccccc34)SC2=S)c(=O)n(-c2ccccc2)n1C
Nonstructural protein 1
  IC50: > 100 µM (active)

## Cc1ccc(Cn2c(=N)c(C(=O)NCCN3CCOCC3)cc3c(=O)n4ccccc4nc32)cc1
[3]
  EC50: > 50 µM (active)

## CCN(CC)c1ccc(C(=C2C=CC(=[N+](CC)CC)C=C2)c2ccc(S(=O)(=O)O)cc2S(=O)(=O)[O-])cc1
Nonstructural protein 1
  IC50: 17.7 µM (active)

## Cc1ccc(S(=O)(=O)NCC(=O)N(CC(=O)NCc2ccco2)Cc2ccc3c(c2)OCO3)cc1
[7]
  EC50: 3.4 µM (active)

## O=C1C(Cl)=C(N2CCN(C/C=C/c3ccccc3)CC2)C(=O)N1c1cccc(C(F)(F)F)c1
[8]
  IC50: > 50 µM (inconclusive)

## Cc1nc2c(-c3ccc(F)cc3)c(C)nn2c(C)c1CCC(=O)N1CCC(Cc2ccccc2)CC1
[7]
  EC50: 6.64 µM (active)

## CN1Cc2c(c(C#N)c(N)n(C)c2=S)CC1(C)C
[9]
  EC50: 29.1 µM (active)
[10]
  EC50: 35.4 µM (active)

## FC(F)(F)C1CC(c2cccs2)Nc2ncnn21 (centres undefined)
[1]
  IC50: 0.904 µM (not active)

## COC(=O)COc1ccc2c(-c3ccc(OC)cc3)cc(=O)oc2c1
cells
  IC50: 1.43 µM (active)

## COc1ccc(NC(=O)C(Cc2ccccc2)n2cccc2)cc1 (centres undefined)
[3]
  EC50: > 50 µM (active)

## CCN1C(=O)/C(=C/c2c(C)nn(C)c2C)SC1=S
[9]
  EC50: 189 µM (inconclusive)
[10]
  EC50: 254 µM (inconclusive)

## CC1CCc2c(sc3c2C2=NS(=O)(=O)CCN2C=N3)C1 (centres undefined)
[1]
  IC50: 9.53 µM (not active)

## CNC(=O)NC(=O)COC(=O)c1ccc(-n2c(C)ccc2C)cc1
[11]
  EC50: > 195 µM (not active)
[9]
  EC50: > 300 µM (not active)
[10]
  EC50: > 300 µM (not active)

## Fc1ccc(CCNCc2ccccc2Cl)cc1
[3]
  EC50: > 50 µM (active)

## CN1CCN(/N=C/c2c3ccccc3c(Cl)c3ccccc23)CC1
[12]
  CC50: 24 µM (active)
Nonstructural protein 1
  IC50: 24.9 µM (active)

## Nc1nc2ccccc2cc1-c1cccs1
[3]
  EC50: > 50 µM (active)

## Cc1cccc(N2CCN(Cc3ccc([N+](=O)[O-])o3)CC2)c1C
cells
  IC50: 0.37 µM (active)
[13]
  EC50: 1.36 µM (active)
[14]
  EC50: > 60 µM (not active)

## Cc1ncc(N=Nc2ccccc2Cl)c(-c2ccccc2)n1
Nonstructural protein 1
  IC50: 39.1 µM (active)

## CCCCN(CC)CC/N=c1/c(N2CCN(C(=O)OCC)CC2)c(O)c1=O
[15]
  IC50: 433 nM (active)
[16]
  EC50: 1.68 µM (active)

## O=C1C(Cl)=C(N2CCN(CCO)CC2)C(=O)N1c1ccc(Cl)nc1
[8]
  IC50: > 50 µM (inconclusive)

## CCn1c(SCCOc2ccc(Cl)cc2)nnc1-c1cccs1
[7]
  EC50: 5.63 µM (active)
[17]
  EC50: > 260 µM (inactive)

From ChEMBL document CHEMBL1201862, “PubChem BioAssay data set” (2004)
